Ki and Emax data for 50 compounds are collected here from patent US8034940B2, “Modulators of glucocorticoid receptor, AP-1, and/or NF-κB activity and use thereof” (Bristol-Myers Squibb Company, priority 2006, dated 2011).

For one assay, the target named is T1, human full-length glucocorticoid receptor (Homo sapiens, UniProt P04150).
T1 sequence (P04150 1-777): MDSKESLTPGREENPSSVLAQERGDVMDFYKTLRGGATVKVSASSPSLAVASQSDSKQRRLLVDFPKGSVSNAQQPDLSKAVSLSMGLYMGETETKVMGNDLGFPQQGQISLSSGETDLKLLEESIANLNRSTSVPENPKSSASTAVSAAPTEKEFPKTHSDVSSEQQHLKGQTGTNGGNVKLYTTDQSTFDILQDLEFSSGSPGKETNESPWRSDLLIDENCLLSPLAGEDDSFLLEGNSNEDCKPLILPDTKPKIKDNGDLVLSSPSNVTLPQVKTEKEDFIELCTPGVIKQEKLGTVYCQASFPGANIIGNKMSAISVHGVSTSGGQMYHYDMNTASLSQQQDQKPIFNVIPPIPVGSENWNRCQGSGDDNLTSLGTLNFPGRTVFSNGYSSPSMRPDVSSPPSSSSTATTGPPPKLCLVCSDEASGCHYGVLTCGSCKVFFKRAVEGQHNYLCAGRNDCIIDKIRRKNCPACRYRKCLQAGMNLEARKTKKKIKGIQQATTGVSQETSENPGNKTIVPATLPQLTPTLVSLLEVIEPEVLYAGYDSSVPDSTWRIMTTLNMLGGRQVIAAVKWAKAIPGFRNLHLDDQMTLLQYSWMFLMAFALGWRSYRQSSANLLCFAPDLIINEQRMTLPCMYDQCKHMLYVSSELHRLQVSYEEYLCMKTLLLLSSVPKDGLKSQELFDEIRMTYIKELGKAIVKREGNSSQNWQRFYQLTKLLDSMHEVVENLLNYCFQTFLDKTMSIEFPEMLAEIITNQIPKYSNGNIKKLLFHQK
Nature of the assay: Glucocorticoid Receptor Binding Assay (I), fluorescence polarization, Fluormone GS Red. Further details: purified human recombinant full-length glucocorticoid receptor; purchased Invitrogen Part #2893.
Conditions: not given
Here is the method:
Glucocorticoid Receptor Binding Assay (I)^a
Briefly, purified human recombinant full-length glucocorticoid receptor (2 nM) was mixed with fluorescently labeled glucocorticoid (1 nM Fluormone GS Red) in the presence or absence of test compound. After two hour incubation at room temperature in the dark, the fluorescence polarization (FP) of the samples was measured. […] Test compounds were analyzed in the concentration range from 8.5E-05 μM to 5 μM.
(In general: In fluorescence polarisation assays a small probe gives low polarisation when free and higher when bound to something large.)
By Ki is commonly meant a dissociation constant, usually derived from enzyme kinetics or from competition with a known ligand. Consider `Cc1nnc(NC(=O)C(C)(C)[C@H]2c3ccccc3Oc3nc(-c4ccc(C(=O)N5CCC(=O)CC5)cc4)ccc32)s1` [Example 475], for which the Ki was 18.3 nM.

Still in this assay, the particulars now being: GR Binding Assay (I); read-out: GR (Ki, nM) (GR Binding Assay (I)).
Turning to `CC(C)(C(=O)Nc1nncs1)[C@H]1c2ccccc2Oc2nc(-c3ccc(C(=O)NCCc4ccccc4)cc3)ccc21` [Example 354], the Ki came to 20.1 nM.
Turning to `COCCN(C)C(=O)c1ccc(-c2ccc3c(n2)Oc2ccccc2[C@@H]3C(C)(C)C(=O)Nc2nncs2)cc1` [Example 295], the Ki came out at 38.7 nM.
Still for that read-out and setting: then `CC(C)CCN(C)C(=O)c1ccc(-c2ccc3c(n2)Oc2ccccc2[C@@H]3C(C)(C)C(=O)Nc2nncs2)cc1` [Example 270], with 20.9 nM; and `COC(=O)[C@H]1CCCCN1C(=O)c1ccc(-c2ccc3c(n2)Oc2ccccc2[C@@H]3C(C)(C)C(=O)Nc2nncs2)cc1` [Example 291], with 44 nM; and `CC(C)(C(=O)Nc1nncs1)[C@H]1c2ccccc2Oc2nc(-c3ccc(C(=O)NCCO)cc3)ccc21` [Example 357], with 31.4 nM.
The same measure, in the same setting: then `CC(C)(C(=O)Nc1nncs1)[C@H]1c2ccccc2Oc2nc(-c3ccc(C(=O)N4CCc5ccccc5C4)cc3)ccc21` [Example 280], with 10.8 nM; and `CC(C)(C(=O)Nc1nncs1)[C@H]1c2ccccc2Oc2nc(-c3ccc(C(=O)N4CCC(C(F)(F)F)CC4)cc3)ccc21` [Example 290], with 20.4 nM; and `CC(C)(C(=O)Nc1nncs1)[C@H]1c2ccccc2Oc2nc(-c3ccc(C(=O)N[C@H]4CCC[C@H]4C(N)=O)cc3)ccc21` [Example 360], with 154 nM.
The same measure, in the same setting: to `CN(C)C(=O)c1ccc(-c2ccc3c(c2)Oc2ncccc2C3C(C)(C)C(=O)Nc2nncs2)cc1` (stereo not drawn) [Example 490] belongs 14.8 nM.
As for `CN(CCOC(C)(C)C)C(=O)c1ccc(-c2ccc3c(n2)Oc2ccccc2[C@@H]3C(C)(C)C(=O)Nc2nncs2)cc1` [Example 302], the Ki came to 126 nM.
For `CN(C)C(=O)c1ccc(-c2ccc3c(n2)Oc2ccccc2C3C2(C(=O)Nc3nncs3)CC2)cc1` (stereo not drawn) [Example 489], the Ki is 144 nM.
Still for that read-out and setting: to `Cc1nnc(NC(=O)C(C)(C)[C@H]2c3ccccc3Oc3nc(-c4cc(F)c(C(=O)N(C)C)c(F)c4)ccc32)s1` [Example 469] belongs 49.8 nM.
Turning to `COC[C@@H]1CCCN1C(=O)c1ccc(-c2ccc3c(n2)Oc2ccccc2[C@@H]3C(C)(C)C(=O)Nc2nncs2)cc1` [Example 272], the Ki is 12.6 nM.
Same read-out and setting: to `CC(C)(C(=O)Nc1nncs1)C1c2ccccc2Oc2cc(C(N)=O)ccc21` (stereo not drawn) [Example 113] belongs 62.6 nM.
Same read-out and setting: to `CCCCCCc1ccc2c(n1)Oc1ccccc1[C@@H]2C(C)(C)C(=O)Nc1nncs1` [Example 437] belongs 11.1 nM; to `CN(C)C(=O)n1cc(-c2ccc3c(n2)Oc2ccccc2[C@@H]3C(C)(C)C(=O)Nc2nncs2)cn1` [Example 453], 17.6 nM; to `CNC(=O)C1CCN(C(=O)c2ccc(-c3ccc4c(n3)Oc3ccccc3[C@@H]4C(C)(C)C(=O)Nc3nncs3)cc2)CC1` [Example 321], 30.6 nM.
For the compound `CN(CCC#N)C(=O)c1ccc(-c2ccc3c(n2)Oc2ccccc2[C@@H]3C(C)(C)C(=O)Nc2nncs2)cc1F` [Example 326], the inhibitory constant (Ki) turned out to be 10.5 nM.
On the same count and under the same terms, to `CC(C)(N)c1ccc(-c2ccc3c(n2)Oc2ccccc2[C@@H]3C(C)(C)C(=O)Nc2nncs2)cc1` [Example 416] belongs 94.5 nM.
Turning to `CC(C)(C(=O)Nc1nncs1)[C@H]1c2ccccc2Oc2nc(-c3ccc(C(=O)N4CCCOCC4)cc3)ccc21` [Example 323], the Ki turned out to be 3.69 nM.
The same measure, in the same setting: to `CN1CCN(C(=O)c2ccc(-c3ccc4c(n3)Oc3ccccc3[C@@H]4C(C)(C)C(=O)Nc3nncs3)cc2)CC1` [Example 256] belongs 180 nM; to `CC(=O)c1ccc2c(n1)Oc1ccccc1[C@@H]2C(C)(C)C(=O)Nc1nncs1` [Example 397], 40.9 nM.
Still for that read-out and setting: then `CC(C)(C(=O)Nc1nncs1)[C@H]1c2ccccc2Oc2nc(-c3ccc(OC4CCOCC4)c(F)c3)ccc21` [Example 242], with 412 nM; and `CCCNC(=O)c1ccc(-c2ccc3c(n2)Oc2ccccc2[C@@H]3C(C)(C)C(=O)Nc2nncs2)cc1` [Example 358], with 40.5 nM.
Still for that read-out and setting: then `CC(C)(C(=O)Nc1nncs1)C1c2ccccc2Oc2cc(NC(=O)Nc3nccs3)ccc21` (stereo not drawn) [Example 123], with 17.8 nM; and `CN(C)C(=O)c1ccc(-c2ccc3c(n2)Oc2ccccc2C3C2(C(=O)Nc3nncs3)CCOCC2)cc1` (stereo not drawn) [Example 483], with 426 nM; and `CC(C)(C(=O)Nc1nncs1)C1c2ccccc2Oc2cc(-c3ccc(C(=O)O)cn3)ccc21` (stereo not drawn) [Example 101], with 19.8 nM.
With `CC(C)(C)OC(=O)N1CC=C(c2ccc3c(n2)Oc2ccccc2[C@@H]3C(C)(C)C(=O)Nc2nncs2)CC1` [Example 406], the Ki amounted to 176 nM.
On the same count and under the same terms, to `CC(C)(C(=O)Nc1nncs1)C1c2ccccc2Oc2cc(C(=O)NCc3ccccc3)ccc21` (stereo not drawn) [Example 118] belongs 76.6 nM.
On the same count and under the same terms, to `COc1cc(-c2ccc3c(n2)Oc2ccccc2[C@@H]3C(C)(C)C(=O)Nc2nncs2)ccc1C(=O)N1CCCCC1` [Example 265] belongs 126 nM; to `CC(C)(C(=O)Nc1nncs1)[C@H]1c2ccccc2Oc2nc(-c3ccc(C(=O)N4CCNC(=O)C4)cc3)ccc21` [Example 296], 19.1 nM.
Regarding `CN(C)C(=O)c1ccc(-c2ccc3c(n2)Oc2ccccc2C3C(C)(C)C(=O)NCC(F)(F)F)cc1` (stereo not drawn) [Example 367], the Ki was 692 nM.
Same read-out and setting: then `CC(C)(C(=O)Nc1nncs1)C1c2ccccc2Oc2cc(C(=O)N3CCOCC3)ccc21` (stereo not drawn) [Example 116], with 346 nM; and `CC(C)(C(=O)Nc1nncs1)[C@H]1c2ccccc2Oc2nc(-c3ccc(C(=O)N4CCCC(F)(F)C4)cc3)ccc21` [Example 287], with 16.8 nM.
Still for that read-out and setting: to `CC(C)(C(=O)Nc1nncs1)[C@H]1c2ccccc2Oc2nc(-c3ccc(C(=O)N4CCC(c5ccccc5)CC4)cc3)ccc21` [Example 281] belongs 33.5 nM; to `CC(C)(C(=O)Nc1nncs1)[C@H]1c2ccccc2Oc2nc(-c3ccc(S(=O)(=O)NC4CC4)cc3)ccc21` [Example 235], 4.85 nM.
On the same count and under the same terms, then `CC(C)(C(=O)Nc1nncs1)C1c2ccccc2Oc2cc(NC(=O)NC3CC3)ccc21` (stereo not drawn) [Example 124], with 65.1 nM; and `CN(C)C(=O)c1ccc(-c2ccc3c(n2)Oc2ccccc2C3CC(=O)Nc2nncs2)cc1` (stereo not drawn) [Example 491], with greater than 1150 nM; and `CC(C)(C(=O)Nc1nncs1)[C@H]1c2ccccc2Oc2nc(-c3ccc(C(=O)N4CCNC(=O)CC4)cc3)ccc21` [Example 311], with 25.8 nM.
Take `CN(C)C(=O)CNC(=O)Nc1ccc2c(n1)Oc1ccccc1[C@@H]2C(C)(C)C(=O)Nc1nncs1` [Example 402]: the Ki worked out at 699 nM.
Same read-out and setting: to `CC(C)(C(=O)Nc1nncs1)[C@H]1c2ccccc2Oc2nc(-c3ccc(C(=O)N4CCC(O)CC4)cc3)ccc21` [Example 269] belongs 14.7 nM; to `CC(C)(C(=O)Nc1nncs1)C1c2ccccc2Oc2cc(-c3ccc(C(=O)O)s3)ccc21` (stereo not drawn) [Example 103], 6.06 nM; to `CN(C)C(=O)c1ccc(-c2ccc3c(c2)Oc2ccccc2C3C(C)(C)C(=O)Nc2nncs2)s1` (stereo not drawn) [Example 104], 4.5 nM.
Still for that read-out and setting: then `CC(C)(C(=O)Nc1nncs1)[C@H]1c2ccccc2Oc2nc(-c3ccc(C(=O)NC4CCCC4)cc3)ccc21` [Example 351], with 147 nM; and `CN(C)C(=O)c1ccc(-c2ccc3c(n2)Oc2ccccc2[C@H]3C(C)(C)C(=O)Nc2nncs2)cc1` [Example 168], with 486 nM; and `CC(C)(C(=O)Nc1nncs1)[C@H]1c2ccccc2Oc2nc(-c3ccc(C(=O)N(CCO)CCO)cc3)ccc21` [Example 304], with 149 nM.
Still for that read-out and setting: then `CN(C)C(=O)c1ccc(-c2ccc3c(n2)Oc2ccccc2[C@@H]3C(C)(C)C(=O)Nc2nncs2)s1` [Example 462], with 3.78 nM; and `CNC(=O)c1ccc2c(c1)Oc1ccccc1C2C(C)(C)C(=O)Nc1nncs1` (stereo not drawn) [Example 117], with 123 nM; and `CC(C)(C)NC(=O)c1ccc(-c2ccc3c(n2)Oc2ccccc2[C@@H]3C(C)(C)C(=O)Nc2nncs2)cc1` [Example 352], with 42.1 nM.

The next assay relates to AP-1 induced transcriptional activity. Nature of the assay: Cellular Transrepressional Assay (AP-1 luciferase reporter, PMA-activated A549 cells). The note with it: Homo sapiens, A549, 7 h, maximum inhibition, Cellular Transrepression Assay; read-out: AP-1 Max % inh (Cellular Transrepression Assay). Type of assay: cell-based. The method in brief: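 A549 cells stably carrying a 7× AP-1–luciferase reporter were stimulated with 10 ng/ml PMA with or without compound (0.1 nM–40 μM) for 7 h. Luminescence read 10 min after luciferase reagent; EC50 fitted from % decrease versus PMA-only signal.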
(Reporter assays use an easily measured gene product as a stand-in for the process of interest.)
On to `CC(C)(C(=O)Nc1nncs1)[C@H]1c2ccccc2Oc2nc(-c3ccc(C(=O)NCCc4ccccc4)cc3)ccc21` [Example 354], for which the Emax came to 28.9%.
Same read-out and setting: then `COCCN(C)C(=O)c1ccc(-c2ccc3c(n2)Oc2ccccc2[C@@H]3C(C)(C)C(=O)Nc2nncs2)cc1` [Example 295], with 24.4%; and `CC(C)CCN(C)C(=O)c1ccc(-c2ccc3c(n2)Oc2ccccc2[C@@H]3C(C)(C)C(=O)Nc2nncs2)cc1` [Example 270], with 28%; and `COC(=O)[C@H]1CCCCN1C(=O)c1ccc(-c2ccc3c(n2)Oc2ccccc2[C@@H]3C(C)(C)C(=O)Nc2nncs2)cc1` [Example 291], with 27%.
On to `CC(C)(C(=O)Nc1nncs1)[C@H]1c2ccccc2Oc2nc(-c3ccc(C(=O)NCCO)cc3)ccc21` [Example 357], for which the Emax was determined as 29.6%.
Still for that read-out and setting: then `CC(C)(C(=O)Nc1nncs1)[C@H]1c2ccccc2Oc2nc(-c3ccc(C(=O)N4CCc5ccccc5C4)cc3)ccc21` [Example 280], with 33.5%; and `CC(C)(C(=O)Nc1nncs1)[C@H]1c2ccccc2Oc2nc(-c3ccc(C(=O)N4CCC(C(F)(F)F)CC4)cc3)ccc21` [Example 290], with 28.8%.
